The values below come from patent publication EP0000644A2, “Lower cycloalkyl substituted-benzene derivatives, the preparation thereof and their pharmaceutical compositions” (FUJISAWA PHARMACEUTICAL CO., LTD., priority 1977, dated 1979).

In one test the test system is erythema. Nature of the test: Ultra-violet erythema test, oral administration. Type of test: in vivo, Hartley rats. Particulars: ten animals per group; oral suspension, half one hour before and half just after ultra-violet radiation; erythema scored two hours later; effective when total of 3 points below 1.5; read-out: Score. The procedure: Ten male 5 week old Hartley rats, each weighing about 350 g., were used per group. The backs of each animal were depilated 24 hours before the test. An adhesive tape with 3 small holes of 9 mm. diameter was placed on the depilated skin and then the animal was exposed to ultra-violet radiation from an ultra-violet lamp (500 W, manufactured by Engelhard Hanovia Inc.) at a distance of 13 cm. for 80 seconds. Two hours later, the degree of erythema was estimated on the basis of the following scores: • 1.0 : eryhthema with clear border, • 0.5 : erythema with unclear border, • 0.0 : scarcely any erythema.
The valuation was determined as follows:
Each dosage of the test compound was administered orally in a suspension form in 20 ml. of 0.5% aqueous methyl cellosolve aqueous solution. Half of the test sample was administered one hour before the radiation and the remaining half of the test solution was administered just after radiation.

In a further test the test system is strip of stomach fundus. Nature of the test: Contraction of isolated stomach fundus strip induced by arachidonic acid. Format: cell-based, Sprague-Dawley rats. The note with it: Rattus norvegicus, 0.25 h. How it is done: The stomach was removed from Sprague-Dawley rats, weighing about 180 g., after the animals were fasted overnight. A strip of stomach fundus was suspended under initial tension of 0.6 g. in a 10 ml. organ bath containing Tyrode solution. Arachidonic acid (1.0 x 10^-5 g/ml.) was employed as the spasmogen. Several doses of the test compound were added to the individnal bath fluid 15 minutes before the addition of arachidonic acid. The value of contraction induced by arachidonic acid was measured and plotted as a dose-activity curve. The ED50 value of each test compound was obtained by interpolation from the dose-activity curve.

The mark [1] stands for this setting: arachidonic acid 1.0 x 10^-5 g/ml. as spasmogen, test compound added 15 minutes before, interpolated from dose-activity curve, read-out: ED50 (the source's name).

In brackets after ≈: the same amount, converted by molar mass. Where a name gives a salt, the structure may show the parent alone. Read-outs that look alike come from different tables or passages of the source.

Turning to `COCC(C(=O)O)c1ccc(C2CCCCC2)c(Cl)c1` (centres unmarked) [4-(3), sodium 2-(3-chloro-4-cyclohexylphenyl)-3-methoxypropionatc], the minimal effective dose in the test on erythema is 8 to 10 mg/kg. For the same compound, the IC50 in the test on strip of stomach fundus (setting [1]) worked out at 0.084 µg/mL.

Turning to `COC(=O)C(COC(C)=O)c1ccc(C2CCCCC2)c(Cl)c1` (centres unmarked) [5-(3), methyl 3-acetoxy-2-(3-chloro-4-cyclohexylphenyl) propionate], the minimal effective dose in the test on erythema lay in the range of 8 to 10 mg/kg. Moreover, the IC50 in the test with strip of stomach fundus (setting [1]) turned out to be 0.12 µg/mL (≈ 0.354 µM).

As for `COCC(CO)c1ccc(C2CCCCC2)c(Cl)c1` (centres unmarked) [7-(2), 2-(3-chloro-4-cyclohexylphenyl)-3-methoxypropanol], in the test with strip of stomach fundus (setting [1]), the IC50 worked out at 0.5 µg/mL (≈ 1.77 µM).

For `CCCOCC(C(=O)[O-])c1ccc(C2CCCCC2)cc1.[Na+]` (centres unmarked) [12-(2), sodium 2-(4-cyclohexylphenyl)-3-propoxypropionate], in the test on erythema, the minimal effective dose lay within 8 to 10 mg/kg. Further, in the test on strip of stomach fundus (read-out: ED50), the IC50 worked out at 2.6 µg/mL.

Consider `CS(=O)(=O)NCC(CO)c1ccc(C2CCCCC2)cc1` (centres unmarked) [14-(3), 2-(4-cyclohexylphenyl)-3-mesylaminopropanol], for which the minimal effective dose in the test on erythema lay in the range of 8 to 10 mg/kg. The IC50 in the test with strip of stomach fundus (setting [1]) worked out at 22 µg/mL (≈ 70.6 µM).

With `CC(=O)CC(C(=O)O)c1ccc(C2CCCCC2)cc1` (centres unmarked) [15-(2), 2-(4-cyclohexylphenyl)-3-acetylpropionic acid], the minimal effective dose in the test on erythema lay within 8 to 10 mg/kg. For the same compound, in the test with strip of stomach fundus (setting [1]), the IC50 stood at 3.2 µg/mL (≈ 11.7 µM).

With `CC(=O)CC(CO)c1ccc(C2CCCCC2)cc1` (centres unmarked) [16-(3), 2-(4-cyclohexylphenyl)-3-acetylpropanol], the minimal effective dose in the test on erythema fell in the range of 8 to 10 mg/kg.

Regarding `COCC(C(=O)O)c1ccc(C2CCCCC2)cc1` (centres unmarked) [17-(2), 2-(4 cyclohexylphenyl)-3-methoxypropionic acid], the minimal effective dose in the test with erythema lay within 8 to 10 mg/kg. For the same compound, the IC50 in the test with strip of stomach fundus (setting [1]) amounted to 1.3 µg/mL (≈ 4.96 µM).

`CNCC(CO)c1ccc(C2CCCCC2)cc1` (centres unmarked) [21-(2), 2-(4-cyclohcxylphenyl)-3-mcthylaminopropanol hydrochloride]: in the test with erythema, the minimal effective dose was 8 to 10 mg/kg.

For the compound `CC(=O)CC(C(=O)O)c1ccc(C2CCCCC2)c(Cl)c1` (centres unmarked) [24-(2), 2-(3-chloro-4-cyclohexylphenyl)-3-acetylpropionic acid], the minimal effective dose in the test with erythema is 8 to 10 mg/kg. Besides, the IC50 in the test on strip of stomach fundus (setting [1]) was determined as 4.2 µg/mL (≈ 13.6 µM).

Take `O=C(O)C(CO)c1ccc(C2CCCCC2)cc1` (centres unmarked) [Example 2, p-cyclohexyltropic acid]: the minimal effective dose with erythema was 8 to 10 mg/kg. In addition, the IC50 in the test with strip of stomach fundus (setting [1]) stood at 2.6 µg/mL (≈ 10.5 µM).

On to `OCC(CO)c1ccc(C2CCCCC2)c(Cl)c1` [Example 7-(1), 2-(3-chloro-4-cyclohexylphenyl)propane-1,3-diol], for which the minimal effective dose in the test with erythema is 8 to 10 mg/kg. Besides, the IC50 in the test with strip of stomach fundus (setting [1]) turned out to be 1.2 µg/mL (≈ 4.46 µM).

With `CC(=O)OCC(COC(C)=O)c1ccc(C2CCCCC2)c(Cl)c1` [Example 8, 1,3-diacetoxy-2-(3-chloro-4-cyclohexylphenyl)propane], the minimal effective dose in the test with erythema lay in the range of 8 to 10 mg/kg.

For `O=C(O)C(CO)c1ccc(C2CCCCC2)c(Cl)c1` (centres unmarked) [Example 9, m-chloro-p-cyclohexyl tropic acid], the minimal effective dose in the test on erythema fell in the range of 8 to 10 mg/kg. Moreover, in the test with strip of stomach fundus (setting [1]), the IC50 worked out at 0.26 µg/mL (≈ 0.919 µM).

`COC(=O)C(CN1CCCCC1)c1ccc(C2CCCCC2)c(Cl)c1` (centres unmarked) [Example 11, methyl 2-(3-chloro-4-cyclohexylphcnyl)-3-piperidinopropionate hydrochloride]: the minimal effective dose in the test with erythema lay within 8 to 10 mg/kg.

In the case of `COCC(COC(=O)COc1ccc(Cl)cc1)c1ccc(C2CCCCC2)cc1` (centres unmarked) [Example 20, 1-(4-chlorophenoxyacetoxy)-2-(4-cyclohexylphenyl)-3-methoxypropane], the minimal effective dose with erythema is 8 to 10 mg/kg.

For the compound `CNCC(C(=O)O)c1ccc(C2CCCCC2)cc1` (centres unmarked) [Example 22, sodium 2-(4-cyclohexylphenyl)-3-methylaminopropionate monohydrate], the minimal effective dose in the test on erythema was 8 to 10 mg/kg.

In the case of `COCC(CO)c1ccc(C2CCCCC2)c(Cl)c1` (centres unmarked) [Example 23, 2-(3-chloro-4-cyclohexylphenyl)-3-methoxypropanol], the minimal effective dose in the test on erythema is 8 to 10 mg/kg.

With `CC(=O)Oc1ccccc1C(=O)O` [aspirin, reference compound], the IC50 with strip of stomach fundus (read-out: ED50) stood at 3.1 µg/mL (≈ 17.2 µM).
